Experimental data: article PMC7188706 (Cancer Chemotherapy and Pharmacology, 2020)
Entries after “also recorded” stand apart in the source; their conditions may differ. Where two headings read alike, the source gives them in different places.

Tests used:
[1] = test system: patients with known EGFR mutations; settings: cited from earlier work
[2] = parameters: method as in PMID 26858332; settings: patients using omeprazole; cited from earlier work
NSCLC patients = test system: NSCLC patients; parameters: method as in PMID 16878326; settings: 2000 mg per week; cited from earlier work
[3] = test system: HER2-positive breast cancer; parameters: method as in PMID 24711549; settings: escalated to 7000 mg on days 1–5 of repeating 14-day cycles, heavily pre-treated patients; cited from earlier work
[4] = Plasma pharmacokinetics and drug monitoring of high-dose, pulsatile sorafenib (LC-MS/MS, non-compartmental); settings: for Cmax / AUC(0-t): human, oral
Procedure: (§1) This single center phase I study was conducted at the Amsterdam UMC, location VUmc, the Netherlands. […] The starting exposure level was 25–50 mg/L/h, analogous to the continuous schedule [23], and was escalated in subsequent cohorts with increments of 25 mg/L/h.
Per patient a maximum of two dose adjustments were permitted. In addition, the maximum concentration (Cmax) and time of maximum concentration (Tmax) were determined.

[5] = cited from earlier work
[6] = test system: progressive renal cell carcinoma; settings: 600 mg twice daily after failure of standard dosing; cited from earlier work
[7] = test system: 789-O renal cell carcinoma xenografts; settings: high-dose schedule; also increased reduction of tumor perfusion and microvessel density; cited from earlier work
[8] = test system: patients with advanced solid malignancies; settings: in vivo;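 further: Single-center phase I trial, adverse events graded by NCI CTCAE version 4.0, safety checks weekly over the first 8 weeks, then every 4 weeks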
Procedure: as §1
(§2) Each dose was dissolved in either a large glass of water or classic Coca-Cola (the Coca-Cola Company, Atlanta GA) (~ 240 ml).
(§3) Safety and tolerability assessments, including physical examination, ECG and blood hematology and chemistry, were performed weekly during the first 8 weeks and once every 4 weeks thereafter. Adverse events (AEs) were graded according to the National Cancer Institute Common Terminology Criteria for Adverse Events version 4.0.
(§4) Dose (/exposure)-limiting toxicity (DLT) was defined as any grade 3 toxicity that occurred within the first 6 weeks of treatment and possibly related to the study drug.

[9] = test system: patients with advanced solid malignancies; test: Phase I safety: treatment-related adverse events (CTCAE v4.0) and dose-limiting toxicity of once weekly high-dose, pulsatile sorafenib;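 further: Single-center phase I trial, adverse events graded by NCI CTCAE version 4.0, safety checks weekly over the first 8 weeks, then every 4 weeks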
Procedure: as §1, §2, §3, §4

patients = settings: cited from earlier work
[10] = test system: advanced solid malignancies; test: Tumor response by CT or MRI using RECIST version 1.1; assay type: in vivo, human
Procedure: Tumor response was assessed by computed tomography or magnetic resonance imaging at baseline and every 8 weeks thereafter using RECIST version 1.1 [24].
Descriptive statistics were used to describe patient characteristics, treatment administration, safety, efficacy and pharmacokinetic data. […] Fisher’s exact tests were used to assess correlations between exposure level or dose and frequency of AEs. […] Data were considered significant at P < 0.05.

[11] = parameters: method as in PMID 15613696; settings: 400 mg twice daily; cited from earlier work
[12] = cited from earlier work; remark: listed apart in the source
[13] = Effect of cola versus water on sorafenib exposure (dose normalized Cmax and AUC(0–12 h)); assay type: in vivo, human; settings: dissolved in cola vs water, patients using PPI
Description: Descriptive statistics were used to describe patient characteristics, treatment administration, safety, efficacy and pharmacokinetic data. Progression-free survival (PFS) was defined as the time from first treatment until progression of disease or death as a result of any cause. Fisher’s exact tests were used to assess correlations between exposure level or dose and frequency of AEs. […] Data were considered significant at P < 0.05.

[14] = cited from earlier work; remark: listed apart in the source
[15] = cited from earlier work; remark: listed apart in the source
[16] = test system: advanced solid malignancies; settings: cited from earlier work

Q: Which tolerability ([1]; erlotinib 450 mg every 3 days or gefitinib 1000 mg every 4 days) does the source give for `C#Cc1cccc(Nc2ncnc3cc(OCCOC)c(OCCOC)cc23)c1` [erlotinib] here?
A: well tolerated

Q: What about the “median PFS” value ([1]; erlotinib 450 mg every 3 days) of the same compound?
A: 6 months

Q: And the response rate ([1]; erlotinib 450 mg every 3 days)?
A: 15%

Q: What about the “effect of cola intake on bioavailability” value [2] of the same compound?
A: did improve by cola intake

Q: What about the “mean overall survival (OS)” value (NSCLC patients) of the same compound?
A: 9.5 months

Q: What about the tolerability (NSCLC patients) of the same compound?
A: well tolerated

Q: Which objective response rate [3] does the source give for `CS(=O)(=O)CCNCc1ccc(-c2ccc3ncnc(Nc4ccc(OCc5cccc(F)c5)c(Cl)c4)c3c2)o1` [lapatinib] here?
A: 15%

Q: With `CNC(=O)c1cc(Oc2ccc(NC(=O)Nc3ccc(Cl)c(C(F)(F)F)c3)cc2)cc[n+]1[O-]` [sorafenib N-oxide] as the compound, how does the “metabolite as share of the parent drug” value ([4]; plasma) read?
A: approximately 4%

Q: With `CNC(=O)c1cc(Oc2ccc(NC(=O)Nc3ccc(Cl)c(C(F)(F)F)c3)cc2)ccn1` [sorafenib] as the compound, how does the enterohepatic circulation [5] read?
A: has been observed

Q: What about the “patients with tumor reduction” value [6] of the same compound?
A: 42%

Q: And the “tumor growth in comparison to continuous conventional dosing” value [7]?
A: slower tumor growth

Q: What about the “ALP increased, Grade All, no. of patients (%)” value ([8]; human) of the same compound?
A: 3 (20%)

Q: What about the “ALP increased, Grade ≥ 3, no. of patients (%)” value ([8]; human) of the same compound?
A: 2 (13%)

Q: And the “Anorexia, Grade All, no. of patients (%)” value ([8]; human)?
A: 3 (20%)

Q: And the “Anorexia, Grade ≥ 3, no. of patients (%)” value ([8]; human)?
A: 0

Q: What about the “Bilirubin increased, Grade All, no. of patients (%)” value ([8]; human) of the same compound?
A: 2 (13%)

Q: What about the “Bilirubin increased, Grade ≥ 3, no. of patients (%)” value ([8]; human) of the same compound?
A: 0

Q: What about the “Bloating, Grade All, no. of patients (%)” value ([8]; human) of the same compound?
A: 2 (13%)

Q: What about the “Bloating, Grade ≥ 3, no. of patients (%)” value ([8]; human) of the same compound?
A: 0

Q: What about the “Diarrhea, Grade All, no. of patients (%)” value ([8]; human) of the same compound?
A: 4 (27%)

Q: And the “Diarrhea, Grade ≥ 3, no. of patients (%)” value ([8]; human)?
A: 0

Q: And the “Fatigue, Grade All, no. of patients (%)” value ([8]; human)?
A: 10 (67%)

Q: And the “Fatigue, Grade ≥ 3, no. of patients (%)” value ([8]; human)?
A: 0

Q: What about the “GGT increased, Grade All, no. of patients (%)” value ([8]; human) of the same compound?
A: 1 (7%)

Q: And the “GGT increased, Grade ≥ 3, no. of patients (%)” value ([8]; human)?
A: 1 (7%)

Q: What about the “Multiorgan failure, Grade All, no. of patients (%)” value ([8]; human) of the same compound?
A: 1 (7%)

Q: What about the “Multiorgan failure, Grade ≥ 3, no. of patients (%)” value ([8]; human) of the same compound?
A: 1 (7%)

Q: What about the “Nausea, Grade All, no. of patients (%)” value ([8]; human) of the same compound?
A: 10 (67%)

Q: And the “Nausea, Grade ≥ 3, no. of patients (%)” value ([8]; human)?
A: 0

Q: What about the “Perforation, Grade All, no. of patients (%)” value ([8]; human) of the same compound?
A: 2 (13%)

Q: And the “Perforation, Grade ≥ 3, no. of patients (%)” value ([8]; human)?
A: 2 (13%)

Q: And the “Stomatitis, Grade All, no. of patients (%)” value ([8]; human)?
A: 2 (13%)

Q: What about the “Stomatitis, Grade ≥ 3, no. of patients (%)” value ([8]; human) of the same compound?
A: 0

Q: And the “Vomiting, Grade All, no. of patients (%)” value ([8]; human)?
A: 8 (53%)

Q: And the “Vomiting, Grade ≥ 3, no. of patients (%)” value ([8]; human)?
A: 0

Q: And the “diarrhea, frequency” value ([8]; human)?
A: 27%

Q: And the “doses from which grade ≥ 3 AEs developed” value ([8]; human)?
A: ≥ 2800 mg/week

Q: And the “fatigue, frequency” value ([8]; human)?
A: 67%

Q: And the incidence of perforation ([8]; human)?
A: 13%

Q: And the “nausea, frequency” value ([8]; human)?
A: 67%

Q: What about the “patients requiring dose interruptions” value ([8]; human) of the same compound?
A: 33%

Q: What about the “patients with dose interruptions due to DLTs leading to permanent study discontinuation” value ([8]; human) of the same compound?
A: 20%

Q: What about the “vomiting, frequency” value ([8]; human) of the same compound?
A: 53%

Q: And the “dose-limiting toxicity, one patient” value ([8]; human, 3 cycles)?
A: grade 5 biliary tract perforation

Q: And the “frequency and rate of grade ≥ 3 AEs versus dose” value [8]?
A: increased with a higher dose of sorafenib

Q: And the “frequency and rate of grade ≥ 3 AEs versus exposure” value [8]?
A: did not increase with higher exposure

Q: And the “patients with dose-limiting toxicity” value [8]?
A: three patients

Q: What about the “tolerated dose in a pulsatile schedule as multiple of conventional dose” value [9] of the same compound?
A: ~ 3.5 times

Q: What about the “incidence of perforation of the gastrointestinal tract” value (patients; standard continuous schedule) of the same compound?
A: < 1%

Q: And the “most important DLTs” value (patients; standard dose sorafenib, several phase I studies)?
A: skin toxicity, diarrhea and fatigue

Q: And the “Observed AUC(0–12 h) week 3, mean (± SD)” value ([4]; Cohort 1, target AUC(0–12 h) 25–50 mg/L/h, PK-guided dose week 3 533 (± 306) mg, plasma)?
A: 31 (± 13) mg/L/h

Q: And the “mean difference between observed and target AUC(0–12 h), week 3” value ([4]; after drug monitoring / personalized dose titration, SD ± 32%, P = 0.06 vs week 1)?
A: 2%

Q: And the “mean difference between observed and target AUC(0–12 h), week 1” value ([4]; fixed starting dose, SD ± 56%)?
A: 45%

Q: What about the Cmax ([4]; plasma, 533 mg, Cmax week 3, mean (± SD), Cohort 1, PK-guided dose week 3 533 (± 306) mg) of the same compound?
A: 4380 ng/mL

Q: And the AUC(0-t) ([4]; plasma, 1000 mg, AUC(0–12 h), range, first exposure cohort, target AUC(0–12 h) 25–50 mg/L/h)?
A: 61 to 103 µg·h/mL

Q: And the AUC(0-t) ([4]; plasma, 1000 mg, Observed AUC(0–12 h) week 1, mean (± SD), Cohort 1, 3 patients, target AUC(0–12 h) 25–50 mg/L/h, fixed dose week 1 1000 mg)?
A: 78 µg·h/mL

Q: And the Cmax ([4]; plasma, 1867 mg, Cmax week 3, mean (± SD), Cohort 2, PK-guided dose week 3 1867 (± 993) mg)?
A: 11100 ng/mL

Q: And the Cmax ([4]; plasma, 2000 mg, Cmax week 1, mean (± SD), Cohort 2, 8 patients, fixed dose week 1 2000 mg)?
A: 13700 ng/mL

Q: What about the AUC(0-t) ([4]; plasma, 2000 mg, Observed AUC(0–12 h) week 1, mean (± SD), Cohort 2, 8 patients, target AUC(0–12 h) 75–100 mg/L/h, fixed dose week 1 2000 mg) of the same compound?
A: 125 µg·h/mL

Q: And the Cmax ([4]; plasma, 2333 mg, Cmax week 3, mean (± SD), Cohort 3, PK-guided dose week 3 2333 (± 219) mg)?
A: 13300 ng/mL

Q: What about the Cmax ([4]; plasma, 2400 mg, Cmax week 1, mean (± SD), Cohort 3, 3 patients, fixed dose week 1 2400 mg) of the same compound?
A: 20800 ng/mL

Q: What about the Cmax ([4]; plasma, 2400 mg, Cmax, highest, SD ± 11 mg/L) of the same compound?
A: ≤ 21000 ng/mL

Q: What about the AUC(0-t) ([4]; plasma, 2400 mg, highest exposure levels, AUC(0–12 h), SD ± 113 mg/L/h) of the same compound?
A: ≤ 204 µg·h/mL

Q: What about the AUC(0-t) ([4]; plasma, 2800 mg, Observed AUC(0–12 h) week 1, mean (± SD), Cohort 4, 3 patients, target AUC(0–12 h) 125–150 mg/L/h, fixed dose week 1 2800 mg) of the same compound?
A: 120 µg·h/mL

Q: And the AUC(0-t) ([4]; plasma, 3600 mg, observed AUC(0–12 h), individual patient, patient with grade 5 biliary tract perforation, sorafenib dose 3600 mg)?
A: 182 µg·h/mL

Q: And the “sorafenib dose up to which mean exposure increased” value ([4]; no additional increases thereafter, divided doses of 200–400 mg every 2 h)?
A: up to 2400 mg per week

Q: What about the “accumulation a week after each ingestion” value ([4]; once weekly) of the same compound?
A: No accumulation

Q: What about the “duration of stable disease” value ([10]; patient with cholangiocarcinoma, target exposure 75–100 mg/L/h, 2400 mg/week) of the same compound?
A: 3 months

Q: And the “duration of stable disease” value ([10]; patient with hepatocellular carcinoma, target exposure 100–125 mg/L/h, 4800 mg/week)?
A: 5.5 months

Q: What about the “complete or partial responses” value ([10]; thirteen patients evaluable) of the same compound?
A: No complete or partial responses were observed

Q: And the “progressive disease, patients” value ([10]; thirteen patients evaluable, eleven patients)?
A: 85%

Q: And the “best response stable disease, patients” value ([10]; thirteen patients evaluable, two patients)?
A: 15%

Q: And the “mean Cmax, steady state” value [11]?
A: 5400 to 9400 ng/mL

Q: What about the “mean sorafenib exposure (AUC), day 1” value [11] of the same compound?
A: 21.8 to 107 mg/L/h

Q: What about the “mean sorafenib exposure (AUC), steady state” value [11] of the same compound?
A: 47.8 to 71.7 mg/L/h

Q: What about the “association of higher AUCmax (> 100 mg/L/h) with outcome” value [12] of the same compound?
A: longer progression-free survival

Q: What about the “effect of cola on sorafenib AUC(0–12 h)” value ([13]; P = 0.24) of the same compound?
A: did not improve sorafenib exposure; also recorded: did not lead to an increase; also recorded: did not affect

Q: What about the “effect of cola on sorafenib Cmax” value ([13]; P = 0.33) of the same compound?
A: did not lead to an increase; also recorded: did not affect

Q: And the “improvement of absorption by multiple divided doses per day” value [14]?
A: 50%

Q: What about the “effects of PPI on sorafenib absorption” value ([14]; contradicting results) of the same compound?
A: no effects to one-third reduction

Q: And the “dose above which absorption is saturable” value ([14]; daily continuous schedule)?
A: > 800 mg/day

Q: What about the “improvement of absorption by a moderate fat meal” value ([14]; in comparison to a high fat meal of ≥ 50% fat) of the same compound?
A: 30%

Q: What about the solubility ([15]; pH 1.0) of the same compound?
A: 0.034 mg/100 mL

Q: And the solubility ([15]; pH 4.5)?
A: 0.013 mg/100 mL

Q: With `CCN(CC)CCNC(=O)c1c(C)[nH]c(/C=C2\C(=O)Nc3ccc(F)cc32)c1C` [sunitinib] as the compound, how does the “increase of Cmax” value ([16]; 14 times the conventional dose) read?
A: 18 fold

Q: What about the “patients with PFS of ≥ 5 months” value [16] of the same compound?
A: 30%

Q: What about the “patients with clinical benefit” value ([16]; more than 70 heavily pre-treated patients) of the same compound?
A: 63%
